Test results from PubChem BioAssay (NCI).
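Five concentrations, 48 hours, 96-well plates. GI50 = concentration required for 50% inhibition of growth. TGI: total growth inhibition.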

Legend:
Assay in all cases: inhibition of tumour cell growth, NCI panel, 48 h
[1] = system: DU-145 prostate
[2] = system: UACC-257 melanoma
[3] = system: HOP-62 NSCLC
[4] = system: A498 renal
[5] = system: LOX IMVI melanoma
[6] = system: MCF7 breast
[7] = system: SK-MEL-5 melanoma
[8] = system: K-562 leukemia
[9] = system: SN12C renal
[10] = system: SF-295 CNS
[11] = system: UACC-62 melanoma
[12] = system: UO-31 renal
[13] = system: OVCAR-5 ovarian
[14] = system: SR leukemia
[15] = system: HCT-116 colon
[16] = system: ACHN renal
[17] = system: SK-MEL-2 melanoma
[18] = system: OVCAR-3 ovarian
[19] = system: COLO 205 colon
[20] = system: MALME-3M melanoma
[21] = system: RPMI-8226 leukemia
[22] = system: RXF 393 renal
[23] = system: MDA-MB-231 breast
[24] = system: SK-OV-3 ovarian
[25] = system: HL-60(TB) leukemia
[26] = system: OVCAR-4 ovarian
[27] = system: MOLT-4 leukemia
[28] = system: SW-620 colon
[29] = system: HCT-15 colon
[30] = system: A549 NSCLC
[31] = system: T-47D breast
[32] = system: OVCAR-8 ovarian
[33] = system: SK-MEL-28 melanoma
[34] = system: NCI-H226 lung
[35] = system: M14 melanoma
[36] = system: NCI-H522 lung
[37] = system: 786-0 renal
[38] = system: SNB-75 CNS
[39] = system: HS 578T breast
[40] = system: HCC-2998 colon
[41] = system: MDA-MB-435
[42] = system: NCI-H23 lung
[43] = system: PC-3 prostate
[44] = system: KM12 colon
[45] = system: NCI/ADR-RES ovarian
[46] = system: HT29 colon
[47] = system: BT-549 breast
[48] = system: SNB-19 CNS
[49] = system: TK-10 renal
[50] = system: CAKI-1 renal
[51] = system: SF-539 CNS
[52] = system: U251 CNS
[53] = system: SF-268 CNS
[54] = system: HOP-92 NSCLC
[55] = system: IGROV1 ovarian
[56] = system: CCRF-CEM leukemia
[57] = system: NCI-H460 lung

With `Cn1cc(C2=C(c3cn(C)c4ccc(OCc5ccccc5)cc34)C(=O)NC2=O)c2ccccc21` the GI50 [1] was over 25 µM, the TGI [1] was over 25 µM and the GI50 [2] was over 25 µM. The TGI [2] was over 25 µM, the GI50 [3] was over 25 µM and the TGI [3] was over 25 µM. For the same molecule, the GI50 [4] was over 25 µM, the TGI [4] was over 25 µM and the GI50 [5] was over 25 µM. For the same molecule, the TGI [5] was over 25 µM, the GI50 [6] was over 25 µM and the TGI [6] was over 25 µM. It also gave a GI50 [7] of over 25 µM, a TGI [7] of over 25 µM and a GI50 [8] of over 25 µM. For the same molecule, the TGI [8] was over 25 µM, the GI50 [9] was over 25 µM and the TGI [9] was over 25 µM. The GI50 [10] was over 25 µM, the TGI [10] was over 25 µM and the GI50 [11] was over 25 µM. The TGI [11] was over 25 µM, the GI50 [12] was over 25 µM and the TGI [12] was over 25 µM. For the same molecule, the GI50 [13] was over 25 µM, the TGI [13] was over 25 µM and the GI50 [14] was over 25 µM. It also gave a TGI [14] of over 25 µM, a GI50 [15] of over 25 µM and a TGI [15] of over 25 µM. For the same molecule, the GI50 [16] was over 25 µM, the TGI [16] was over 25 µM and the GI50 [17] was over 25 µM. For the same molecule, the TGI [17] was over 25 µM, the GI50 [18] was over 25 µM and the TGI [18] was over 25 µM. It also gave a GI50 [19] of over 25 µM, a TGI [19] of over 25 µM and a GI50 [20] of over 25 µM. For the same molecule, the TGI [20] was over 25 µM, the GI50 [21] was over 25 µM and the TGI [21] was over 25 µM. It also gave a GI50 [22] of over 25 µM, a TGI [22] of over 25 µM and a GI50 [23] of over 25 µM. For the same molecule, the TGI [23] was over 25 µM, the GI50 [24] was over 25 µM and the TGI [24] was over 25 µM. For the same molecule, the GI50 [25] was over 25 µM, the TGI [25] was over 25 µM and the GI50 [26] was over 16.9 µM. For the same molecule, the TGI [26] was over 25 µM, the GI50 [27] was over 25 µM and the TGI [27] was over 25 µM. It also gave a GI50 [28] of over 25 µM, a TGI [28] of over 25 µM and a GI50 [29] of over 25 µM. It also gave a TGI [29] of over 25 µM, a GI50 [30] of over 25 µM and a TGI [30] of over 25 µM. For the same molecule, the GI50 [31] was over 25 µM, the TGI [31] was over 25 µM and the GI50 [32] was over 25 µM. It also gave a TGI [32] of over 25 µM, a GI50 [33] of over 25 µM and a TGI [33] of over 25 µM. For the same molecule, the GI50 [34] was over 25 µM, the TGI [34] was over 25 µM and the GI50 [35] was over 25 µM. It also gave a TGI [35] of over 25 µM, a GI50 [36] of over 25 µM and a TGI [36] of over 25 µM. It also gave a GI50 [37] of over 25 µM, a TGI [37] of over 25 µM and a GI50 [38] of over 25 µM. For the same molecule, the TGI [38] was over 25 µM, the GI50 [39] was over 21.2 µM and the TGI [39] was over 25 µM. The GI50 [40] was over 25 µM, the TGI [40] was over 25 µM and the GI50 [41] was over 25 µM. For the same molecule, the TGI [41] was over 25 µM, the GI50 [42] was over 25 µM and the TGI [42] was over 25 µM. The GI50 [43] was over 25 µM, the TGI [43] was over 25 µM and the GI50 [44] was over 25 µM. It also gave a TGI [44] of over 25 µM, a GI50 [45] of over 25 µM and a TGI [45] of over 25 µM. The GI50 [46] was over 25 µM, the TGI [46] was over 25 µM and the GI50 [47] was over 25 µM. The TGI [47] was over 25 µM, the GI50 [48] was over 25 µM and the TGI [48] was over 25 µM. The GI50 [49] was over 25 µM, the TGI [49] was over 25 µM and the GI50 [50] was over 25 µM. For the same molecule, the TGI [50] was over 25 µM, the GI50 [51] was over 25 µM and the TGI [51] was over 25 µM. It also gave a GI50 [52] of over 25 µM, a TGI [52] of over 25 µM and a GI50 [53] of over 25 µM. For the same molecule, the TGI [53] was over 25 µM, the GI50 [54] was over 25 µM and the TGI [54] was over 25 µM. The GI50 [55] was over 25 µM, the TGI [55] was over 25 µM and the GI50 [56] was over 25 µM. It also gave a TGI [56] of over 25 µM, a GI50 [57] of over 25 µM and a TGI [57] of over 25 µM.
